Data: paper PMC7646944 (2020)

How the values were obtained:
[1] = system: SCA2.1–40 (DNA, aptamer) CTTACGACCTTAAGTGGGGTTCGGGTGGAGTTTATGGGGT; assay: isothermal titration calorimetry
[2] = system: SCA2.1–34 (DNA, aptamer) ACCTTAAGTGGGGTTCGGGTGGAGTTTATGGGGT; assay: isothermal titration calorimetry

Compound | KD [1] [µM] | KD [2] [µM]
CCCC(C(=O)c1ccc2c(c1)OCO2)N1CCCC1 (stereo not drawn) | 292 ± 14 | 96 ± 4.0
CCC[C@H](C(=O)c1ccc2c(c1)OCO2)N1CCCC1 | 0.65 ± 0.03 | 
